The text below walks through data of ChEMBL document CHEMBL1132905, “Synthesis of glycosylated polyethylenimine with reduced toxicity and high transfecting efficiency” (Bioorg Med Chem Lett, 2000).

The nature of this data set: Lethal dose against HeLa cells, from a human cervix epitheloid carcinoma. It counts as toxicity, cell-based. The note with it: read-out: LD50 (the source's name).

For `CCN(CCNC)CCNC[C@H](O)[C@@H](O)[C@H](O[C@@H]1O[C@H](CO)C(O)[C@H](O)[C@H]1O)[C@H](O)CO` (stereo partly specified) [GLYCOSYLATED PEI], the CC50 is more than 300 µM.
